PubChem BioAssay (NCI)
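Each compound was tested at five concentrations against cells in 96-well plates for 48 hours. TGI: concentration producing complete growth inhibition.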

Legend:
Assay in all cases: NCI tumour cell line growth inhibition, 48 h
786-0 renal = test system: 786-0 renal
A498 renal = test system: A498 renal
A549 NSCLC = test system: A549 NSCLC
ACHN renal = test system: ACHN renal
BT-549 breast = test system: BT-549 breast
CAKI-1 renal = test system: CAKI-1 renal
CCRF-CEM leukemia = test system: CCRF-CEM leukemia
COLO 205 colon = test system: COLO 205 colon
DU-145 prostate = test system: DU-145 prostate
EKVX NSCLC = test system: EKVX NSCLC
HCC-2998 colon = test system: HCC-2998 colon
HCT-116 colon = test system: HCT-116 colon
HCT-15 colon = test system: HCT-15 colon
HL-60(TB) leukemia = test system: HL-60(TB) leukemia
HOP-62 NSCLC = test system: HOP-62 NSCLC
HS 578T breast = test system: HS 578T breast
HT29 colon = test system: HT29 colon
IGROV1 ovarian = test system: IGROV1 ovarian
K-562 leukemia = test system: K-562 leukemia
KM12 colon = test system: KM12 colon
LOX IMVI melanoma = test system: LOX IMVI melanoma
M14 melanoma = test system: M14 melanoma
MALME-3M melanoma = test system: MALME-3M melanoma
MCF7 breast = test system: MCF7 breast
MDA-MB-231 breast = test system: MDA-MB-231 breast
MDA-MB-435 = test system: MDA-MB-435
MDA-N = test system: MDA-N
MOLT-4 leukemia = test system: MOLT-4 leukemia
NCI-H226 lung = test system: NCI-H226 lung
NCI-H23 lung = test system: NCI-H23 lung
NCI-H460 lung = test system: NCI-H460 lung
NCI-H522 lung = test system: NCI-H522 lung
NCI/ADR-RES ovarian = test system: NCI/ADR-RES ovarian
OVCAR-3 ovarian = test system: OVCAR-3 ovarian
OVCAR-4 ovarian = test system: OVCAR-4 ovarian
OVCAR-5 ovarian = test system: OVCAR-5 ovarian
OVCAR-8 ovarian = test system: OVCAR-8 ovarian
PC-3 prostate = test system: PC-3 prostate
RPMI-8226 leukemia = test system: RPMI-8226 leukemia
RXF 393 renal = test system: RXF 393 renal
SF-268 CNS = test system: SF-268 CNS
SF-295 CNS = test system: SF-295 CNS
SF-539 CNS = test system: SF-539 CNS
SK-MEL-2 melanoma = test system: SK-MEL-2 melanoma
SK-MEL-28 melanoma = test system: SK-MEL-28 melanoma
SK-MEL-5 melanoma = test system: SK-MEL-5 melanoma
SK-OV-3 ovarian = test system: SK-OV-3 ovarian
SN12C renal = test system: SN12C renal
SNB-19 CNS = test system: SNB-19 CNS
SW-620 colon = test system: SW-620 colon
T-47D breast = test system: T-47D breast
TK-10 renal = test system: TK-10 renal
U251 CNS = test system: U251 CNS
UACC-257 melanoma = test system: UACC-257 melanoma
UACC-62 melanoma = test system: UACC-62 melanoma
UO-31 renal = test system: UO-31 renal
HOP-92 NSCLC = test system: HOP-92 NSCLC
SNB-75 CNS = test system: SNB-75 CNS

Nc1ncnc2nc(N3CCN(CCO)CC3)[nH]c12
TGI (786-0 renal): > 100 µM | TGI (A498 renal): > 100 µM | TGI (A549 NSCLC): > 100 µM | TGI (ACHN renal): > 100 µM | TGI (BT-549 breast): > 100 µM | TGI (CAKI-1 renal): > 100 µM | TGI (CCRF-CEM leukemia): > 100 µM | TGI (COLO 205 colon): > 100 µM | TGI (DU-145 prostate): > 100 µM | TGI (EKVX NSCLC): > 100 µM | TGI (HCC-2998 colon): > 100 µM | TGI (HCT-116 colon): > 100 µM | TGI (HCT-15 colon): > 100 µM | TGI (HL-60(TB) leukemia): > 100 µM | TGI (HOP-62 NSCLC): > 100 µM | TGI (HS 578T breast): > 100 µM | TGI (HT29 colon): > 100 µM | TGI (IGROV1 ovarian): > 100 µM | TGI (K-562 leukemia): > 100 µM | TGI (KM12 colon): > 100 µM | TGI (LOX IMVI melanoma): > 100 µM | TGI (M14 melanoma): > 100 µM | TGI (MALME-3M melanoma): > 100 µM | TGI (MCF7 breast): > 100 µM | TGI (MDA-MB-231 breast): > 100 µM | TGI (MDA-MB-435): > 100 µM | TGI (MDA-N): > 100 µM | TGI (MOLT-4 leukemia): > 100 µM | TGI (NCI-H226 lung): > 100 µM | TGI (NCI-H23 lung): > 100 µM | TGI (NCI-H460 lung): > 100 µM | TGI (NCI-H522 lung): > 100 µM | TGI (NCI/ADR-RES ovarian): > 100 µM | TGI (OVCAR-3 ovarian): > 100 µM | TGI (OVCAR-4 ovarian): > 100 µM | TGI (OVCAR-5 ovarian): > 100 µM | TGI (OVCAR-8 ovarian): > 100 µM | TGI (PC-3 prostate): > 100 µM | TGI (RPMI-8226 leukemia): > 100 µM | TGI (RXF 393 renal): > 100 µM | TGI (SF-268 CNS): > 100 µM | TGI (SF-295 CNS): > 100 µM | TGI (SF-539 CNS): > 100 µM | TGI (SK-MEL-2 melanoma): > 100 µM | TGI (SK-MEL-28 melanoma): > 100 µM | TGI (SK-MEL-5 melanoma): > 100 µM | TGI (SK-OV-3 ovarian): > 100 µM | TGI (SN12C renal): > 100 µM | TGI (SNB-19 CNS): > 100 µM | TGI (SW-620 colon): > 100 µM | TGI (T-47D breast): > 100 µM | TGI (TK-10 renal): > 100 µM | TGI (U251 CNS): > 100 µM | TGI (UACC-257 melanoma): > 100 µM | TGI (UACC-62 melanoma): > 100 µM | TGI (UO-31 renal): > 100 µM

Clc1ccc(CSC2=NCCN2)cc1Cl
TGI (786-0 renal): 23.8 µM | TGI (A498 renal): 52.8 µM | TGI (A549 NSCLC): 98.9 µM | TGI (ACHN renal): 30.9 µM | TGI (BT-549 breast): 40.2 µM | TGI (CAKI-1 renal): 23.5 µM | TGI (CCRF-CEM leukemia): 22.3 µM | TGI (COLO 205 colon): 37.9 µM | TGI (DU-145 prostate): 29.7 µM | TGI (EKVX NSCLC): 24.3 µM | TGI (HCC-2998 colon): 30.1 µM | TGI (HCT-116 colon): 28.7 µM | TGI (HCT-15 colon): 31.9 µM | TGI (HL-60(TB) leukemia): 27.7 µM | TGI (HOP-62 NSCLC): 47.1 µM | TGI (HOP-92 NSCLC): 13.8 µM | TGI (HS 578T breast): 53.7 µM | TGI (HT29 colon): 28.4 µM | TGI (IGROV1 ovarian): 39.1 µM | TGI (K-562 leukemia): 88.8 µM | TGI (KM12 colon): 33.5 µM | TGI (LOX IMVI melanoma): 30.1 µM | TGI (M14 melanoma): 30.6 µM | TGI (MALME-3M melanoma): 28.6 µM | TGI (MCF7 breast): 25.2 µM | TGI (MDA-MB-231 breast): 29.2 µM | TGI (MDA-MB-435): 30.5 µM | TGI (MDA-N): 25 µM | TGI (MOLT-4 leukemia): 35.9 µM | TGI (NCI-H226 lung): 42.3 µM | TGI (NCI-H23 lung): 35.8 µM | TGI (NCI-H460 lung): 37.3 µM | TGI (NCI-H522 lung): 21.5 µM | TGI (NCI/ADR-RES ovarian): 49.8 µM | TGI (OVCAR-3 ovarian): 30.3 µM | TGI (OVCAR-4 ovarian): 27 µM | TGI (OVCAR-5 ovarian): 53.3 µM | TGI (OVCAR-8 ovarian): 40 µM | TGI (PC-3 prostate): 23.7 µM | TGI (RPMI-8226 leukemia): 36.3 µM | TGI (RXF 393 renal): 28.4 µM | TGI (SF-268 CNS): 42.5 µM | TGI (SF-295 CNS): > 100 µM | TGI (SK-MEL-28 melanoma): 35.1 µM | TGI (SK-MEL-5 melanoma): 26 µM | TGI (SK-OV-3 ovarian): 49.5 µM | TGI (SN12C renal): 35.8 µM | TGI (SNB-19 CNS): > 100 µM | TGI (SW-620 colon): 35.4 µM | TGI (T-47D breast): 27 µM | TGI (TK-10 renal): 31.5 µM | TGI (U251 CNS): 27 µM | TGI (UACC-257 melanoma): 24.1 µM | TGI (UACC-62 melanoma): 30.5 µM | TGI (UO-31 renal): 23.6 µM

COc1cc2oc(-c3ccc4c(c3)OCO4)c(OC)c(=O)c2c(OC)c1OC
TGI (786-0 renal): > 100 µM | TGI (A498 renal): > 100 µM | TGI (A549 NSCLC): > 100 µM | TGI (ACHN renal): > 100 µM | TGI (BT-549 breast): > 100 µM | TGI (CAKI-1 renal): > 100 µM | TGI (CCRF-CEM leukemia): > 100 µM | TGI (COLO 205 colon): > 100 µM | TGI (DU-145 prostate): > 100 µM | TGI (EKVX NSCLC): > 100 µM | TGI (HCC-2998 colon): > 100 µM | TGI (HCT-116 colon): > 100 µM | TGI (HCT-15 colon): > 100 µM | TGI (HL-60(TB) leukemia): > 100 µM | TGI (HOP-62 NSCLC): 93 µM | TGI (HOP-92 NSCLC): 39.8 µM | TGI (HS 578T breast): > 100 µM | TGI (HT29 colon): > 100 µM | TGI (IGROV1 ovarian): > 100 µM | TGI (K-562 leukemia): > 100 µM | TGI (KM12 colon): > 100 µM | TGI (LOX IMVI melanoma): > 100 µM | TGI (M14 melanoma): > 100 µM | TGI (MALME-3M melanoma): > 100 µM | TGI (MCF7 breast): > 100 µM | TGI (MDA-MB-231 breast): > 100 µM | TGI (MDA-MB-435): > 100 µM | TGI (MDA-N): > 100 µM | TGI (MOLT-4 leukemia): > 100 µM | TGI (NCI-H226 lung): > 100 µM | TGI (NCI-H23 lung): > 100 µM | TGI (NCI-H460 lung): > 100 µM | TGI (NCI-H522 lung): > 100 µM | TGI (NCI/ADR-RES ovarian): > 100 µM | TGI (OVCAR-3 ovarian): > 100 µM | TGI (OVCAR-4 ovarian): > 100 µM | TGI (OVCAR-5 ovarian): > 100 µM | TGI (OVCAR-8 ovarian): > 100 µM | TGI (PC-3 prostate): > 100 µM | TGI (RXF 393 renal): > 100 µM | TGI (SF-268 CNS): 99.5 µM | TGI (SF-295 CNS): > 100 µM | TGI (SF-539 CNS): > 100 µM | TGI (SK-MEL-2 melanoma): > 100 µM | TGI (SK-MEL-28 melanoma): > 100 µM | TGI (SK-MEL-5 melanoma): > 100 µM | TGI (SK-OV-3 ovarian): > 100 µM | TGI (SN12C renal): > 100 µM | TGI (SNB-19 CNS): > 100 µM | TGI (SNB-75 CNS): 94 µM | TGI (SW-620 colon): > 100 µM | TGI (T-47D breast): > 100 µM | TGI (TK-10 renal): > 100 µM | TGI (U251 CNS): > 100 µM | TGI (UACC-257 melanoma): > 100 µM | TGI (UACC-62 melanoma): > 100 µM | TGI (UO-31 renal): > 100 µM
